Consider one molecule from patent US9498507B2, “Antiviral composition” (Piramal Enterprises Limited, priority 2011, dated 2016).

The test system of assay [1] is HSV-1. The experiment in a line: Mouse HSV-1 zosteriform spread infection model. To be noted: acyclovir 225 mg/kg/day topical. The class given is in vivo, Balb/c female mice. The text has this:
The assay was done as reported in Antimicrobial Agents and Chemotherapy, June 2002, p. 1766-1772, incorporated herein by reference for its procedure.
Balb/c female mice of 6 to 8 weeks which are non-pregnant and nulliparous were used for the study. All the animals were shaved on right mid dorsal area using electric hair clipper and few horizontal scarification was done on shaved area using sterile 26 gauge needle, just before viral challenge.
Prior to viral challenge, the scarified area of each mouse was cleaned with a cotton swab soaked in 70% alcohol followed by clearing the area using cotton swab soaked in sterile DMEM. Mice were then infected onto the scarified area with HSV-1 virus containing 8.27×10^3 pfu/animal. […]
The following formulations, as described in Example 6, were evaluated: • (a) Formulation IA • (b) Formulation IB • (c) Formulation IC
Formulation IA, Formulation IB and Formulation IC were applied topically thrice daily for a 5 day period. 15 mg of Formulation IA correspond to 225 mg/kg dose; 15 mg of Formulation IB correspond to 450 mg/kg dose; 15 mg of Formulation IC correspond to 675 mg/kg dose and 25 mg of Formulation IB correspond to 750 mg/kg dose evaluated in the animals.
The animals were assessed daily for morbidity, mortality and the site of infection for a period of 21 days post infection. […]

Assay [2] concerns HSV-2. The experiment in a line: Effect on replication at different time points post-infection (MTT). The class given is cell-based. As to the method:
(§1) These stages occur at different time points in the virus life cycle spanning from 1 hour—initiation of adsorption to 24 hours—completion of one HSV replication cycle. Adsorption stage of the virus life cycle is the initial attachment of the herpes virus to host cells which involves interaction of gC and gD (conserved glycoproteins) on the virus with cell surface receptors such as heparin sulfate. Attachment stage of the virus life cycle is the stable attachment which allows close association of virus with the cell. The stage of the virus life cycle subsequent to the adsorption and attachment stages is known as the post infection stage. Vero cells were seeded onto 96-well flat-bottomed plates at a density of 2.2×10^4 cells/well in 10% FBS-DMEM growth medium. After 20-24 hours, the confluent monolayers were infected with 100 μL/well of 1:10^4 virus dilution (HSV-1 clinical strain) (TCID50 5.88×10^6/mL) or 1:10^3 dilution of HSV-2 (TCID50 2.43×10^6/mL) and plates incubated for 1 hour at 37° C. and 5% CO2. […] Maintenance medium was added to the wells for virus control (virus dilution+maintenance medium) and cell control (maintenance medium only). The plates were further incubated for 48-50 hours at 37° C. […] The plate was left in the 37° C., 5% CO2 incubator overnight. After incubation, the plate cover was removed and absorbance measured in each well at 570 nm in the microplate plate reader (BIO-TEK, Synergy HT).

In assay [3] the test system is HSV-1. The assay is described as above. It is filed as cell-based. The protocol: as §1
Assay [4] deals with HSV-2. Nature of the assay: Mouse vaginal model of HSV-2 infection. The following applies: acyclovir 225 mg/kg/day intravaginal. It is filed as in vivo, Balb/c female mice. As to the method:
The assay was done as reported in Antiviral Research, 2006, 69:77-85, incorporated herein by reference for its procedure.
Balb/c female mice of 6 to 8 weeks, non-pregnant and nulliparous were used for the study. Female BALB/c mice were used for vaginal inoculation with HSV-2. Five days prior to intravaginal (IVAG) challenge, mice were injected subcutaneously (sc) with 2 mg of progesterone (Depo-Provera®; Pfizer, Belgium) in the upper back, using a 29-gauge needle. On the day of challenge, mice were inoculated intravaginally with 1.14×10^5 pfu of HSV-2. IVAG administrations of virus were via a micropipette in a total volume of 20 μL DMEM. Animals received Formulation IA, Formulation IB, Formulation IC/acyclovir/placebo intravaginally by topical administration 30 minutes post infection. […]
The following formulations, as described in Example 6, have been evaluated: • (a) Formulation IA • (b) Formulation IB • (c) Formulation IC
Formulation IA, Formulation IB and Formulation IC were applied topically thrice daily for a 5 day period. 15 mg of Formulation IA correspond to 225 mg/kg dose; 15 mg of Formulation IB correspond to 450 mg/kg dose and 15 mg of Formulation IC correspond to 675 mg/kg dose evaluated in the animals.
The animals were assessed daily for extravaginal disease signs and survival for a period of 21 days post infection. […]

Assay [5] has as its system HSV-2. Nature of the assay: Virus penetration assay. It is filed as cell-based. To be noted: compared to sample 23 of Example 4. As to the method: (§2) Penetration of HSV into host cells may be defined as a step subsequent to initial binding to the host cell surface which triggers fusion of the virion envelope with the plasma membrane. This requires multiple interactions, in a cascade like manner, involving various glycoproteins (gB, gD and gH/gL) and cell surface components (Cell. Mol. Life Sci, 2008, 65, 1653-1668). […] Vero cells were seeded onto 24 well plates at a density of 1.8×10^5 cells/well. […] The cells were incubated at 4° C. for 2 hours to allow viral attachment. […] The plates were then washed with 0.85% saline and stained with 0.13% crystal violet.

The subject of assay [6] is HSV-1. Nature of the assay: Virus penetration assay. It is filed as cell-based. The following applies: compared to sample 23 of Example 4. As to the method:
as §2

Assay [7] relates to HSV-2. Nature of the assay: Virucidal activity assay. The class given is cell-based. The following applies: 25-400 μg/mL. The text has this:
(§3) In the virucidal assay, the continuous presence of an antiviral drug may be frequently required for blocking infectivity of viral particle for cultured cells and dilution of the virus-extract complexes may dissociate, releasing infectious virus (Antiviral research, 2010, 86, 196-203). If a sample is unable to reduce virus infectivity at the IC50 or other potent concentrations then the antiviral activity is not related to its virucidal ability. […] HSV-1 virus suspension at a concentration of approximately 10^10 pfu/mL and HSV-2 at 10^9 pfu/ml were prepared. […] These admixtures were then diluted […] (1:100) to yield a final concentration range of 0.25-4 μg/ml corresponding to 25-400 μg/ml.

For assay [8], the system named is HSV-1. The experiment in a line: Virucidal activity assay. It is filed as cell-based. The following applies: 25-400 μg/mL.
From the text: as §3

Assay [9] concerns HSV-2. Nature of the assay: Antiviral activity prior to infection (pre-treatment plaque assay). To be noted: 3.125-400 μg/mL. It is filed as cell-based. The protocol:
(§4) In order for herpes viruses to enter a target cell, they must fuse their lipid membrane envelope with the lipid membrane of the cell. This complex viral entry mechanism is mediated by at least three conserved glycoprotein's (gC, gB and gD) and their ability to bind cell surface receptors such as nectins and herpes virus entry mediator (HVEM) (Cell. Mol. Life Sci, 2008, 65, 1653-1668). […] Vero cells were seeded onto 24 well plates at a density of 1.8×10^5 cells/well. […] Following incubation, the plates were washed with 0.85% saline and stained with 0.13% crystal violet.

Assay [10] relates to HSV-1. The description is as above. The following applies: 3.125-400 μg/mL. The class given is cell-based. As to the method:
as §4

The test system of assay [11] is HSV-2. The experiment in a line: Primary antiviral screening, CPE inhibition assay (crystal violet staining method). The class given is cell-based. To be noted: Human alphaherpesvirus 2. The protocol:
(§5) The assay was done as reported in Indian J. Med. Res., 2004, 120:24-29 incorporated herein by reference for its procedure.
(§6) Vero cells (obtained in step 1 of Example 8) were propagated at a density of 1×10^4 cells/well in 96 well plate and incubated at 37° C. in a CO2 incubator for 24 hours to form a monolayer. Samples 1 to 26 were tested by adding at 50 μg/mL and 100 μg/mL concentration (DMSO stock of 20 mg/mL of the extract was diluted to 50 μg/mL and 100 μg/mL with DMEM containing 2% FBS) in a final culture volume of 200 μL/well. Appropriate controls were included such as Vero cells alone (cell control), Vero cells with virus (virus control) and Vero cells with virus and the standard compound, acyclovir (a commercially available antiviral drug). Acyclovir was tested at the following concentrations (DMSO stock of 20 mg/mL of acyclovir was diluted to 100 μg/mL with DMEM containing 2% FBS): 12.5 μg/mL, 6.25 μg/mL, 3.125 μg/mL, 1.5 μg/mL and 0.78 μg/mL against HSV-1 and 25 μg/mL, 12.5 μg/mL, 6.25 μg/mL and 3.125 μg/mL against HSV-2. The extracts to be assayed were added 1 hour prior to infection to provide maximum sensitivity and give a tentative idea of potential inhibitors of early replicative steps such as adsorption or penetration. After one hour, cells were infected with 100 μL of appropriate viral dose per well [HSV-1 at a multiplicity of infection (MOI) of 10^4 TCID50 or HSV-2 at a MOI of 10^3 TCID50] using viral stock obtained in step 2 of Example 8. The infected cells were incubated with maintenance medium (DMEM with 2% FBS) for another 48 to 50 hours. […] The staining solution was aspirated out and the plates rinsed using distilled water until all excess stain was washed away. The plates were allowed to dry for 24 hours. CPE was evaluated visually, after staining the plaques, and microscopically and graded according to the percentage of CPE inhibition as compared to controls.

The test system of assay [12] is HSV-1. The description is as above. The following applies: Human alphaherpesvirus 1. It is filed as cell-based. As to the method: as §5, §6

For `Nc1nc2c(ncn2COCCO)c(=O)[nH]1` [Acyclovir], the mortality entry in the assay on HSV-1 [1] and with HSV-2 [4] was “None of the mice died” throughout. In addition, the “recovery of all mice from zosteriform lesions” value with HSV-1 [1] is recorded as ≤ 7 day, post infection. In addition, the antiviral effect entry was “potent antiviral effect” with HSV-2 [2] (3.125-200 μg/mL, 0-7 hours); “absent” in the assay with HSV-2 [2] (16-24 hours p.i.); “potent antiviral effect” in the assay with HSV-1 [3] (3.125-200 μg/mL, 0-7 hours); “about 17%” in the assay with HSV-1 [3] (16-24 hours). The “signs of extravaginal disease” value with HSV-2 [4] is reported as “None of the mice showed signs of extravaginal disease”. The “inhibitory activity (penetration)” value in the assay with HSV-2 [5] and in the assay with HSV-1 [6] was “weak to moderate inhibitory activity” each time. Also, the “virucidal effect against HSV-2” value in the assay on HSV-2 [7] is reported as 11-38%. Also, the “virucidal effect against HSV-1” value with HSV-1 [8] is listed as 0-32%. The “inhibitory effect against HSV-2 prior to infection” value in the assay on HSV-2 [9] was 10-20%. Besides, the “inhibitory effect against HSV-1 prior to infection” value in the assay on HSV-1 [10] is given as 10-40%. Further, the inhibition (usually how much of the control response was suppressed) at 3.125 µg/mL with HSV-2 [11] (3.125 μg/mL) lay within 11 to 25%; in the assay with HSV-1 [12] (3.125 μg/mL), 51 to 75%. Also, the inhibition at 6.25 µg/mL was 26 to 50% in the assay with HSV-2 [11] (6.25 μg/mL) and 51 to 75% in the assay on HSV-1 [12] (6.25 μg/mL). Moreover, the inhibition at 12.5 µg/mL in the assay on HSV-2 [11] (12.5 μg/mL) fell in the range of 51 to 75%; in the assay with HSV-1 [12] (12.5 μg/mL), 76 to 100%. In the assay with HSV-2 [11] (25 μg/mL), the inhibition at 25 µg/mL is 76 to 100%. Further, in the assay on HSV-1 [12] (0.78 μg/mL), the inhibition at 0.78 µg/mL lay within 11 to 25%. The same molecule displayed an inhibition at 1.5 µg/mL with HSV-1 [12] (1.5 μg/mL) of 26 to 50%.
